Data: patent US7846924B2, “Cyanopyrroles” (Wyeth LLC, priority 1999, dated 2010)

Row | SMILES | melting point
1 | CC(C)(C)OC(=O)Cn1c(C#N)ccc1-c1ccc2c(c1)C(C)(C)OC(=O)N2 [Example 8, tert-butyl[2-cyano-5-(4,4-dimethyl-2-oxo-1,4-dihydro-2H-3,1-benzoxazin-6-yl)-1H-pyrrol-1-yl]acetate] | 188 to 190 °C
2 | CC1(C)C(=O)Nc2ccc(C3(C#N)C=CC=N3)cc21 (stereo not drawn) [Example 3, 2-(3,3-Dimethyl-2-oxo-2,3-dihydro-1H-indol-5-yl)-2-cyanopyrrole] | 255.9 to 257.9 °C
3 | CCn1c(C#N)ccc1-c1ccc2c(c1)C(C)(C)OC(=O)N2 [Example 6, 5-(4,4-Dimethyl-2-oxo-1,4-dihydro-2H-3,1-benzoxazin-6-yl)-1-ethyl-1H-pyrrole-2-carbonitrile] | 200 to 202 °C
4 | CC1(C)OC(=O)Nc2ccc(-c3ccc(C#N)[nH]3)cc21 [Example 1, 5-(4,4-Dimethyl-2-oxo-1,4-dihydro-2H-benzo[d][1,3]oxazin-6-yl)-1H-pyrrole-2-carbonitrile] | 241 to 242 °C
5 | C#CCn1c(C#N)ccc1-c1ccc2c(c1)C(C)(C)OC(=O)N2 [Example 7, 5-(4,4-dimethyl-2-oxo-1,4-Dihydro-2H-3,1-benzoxazin-6-yl)-1-prop-2-ynyl-1H-pyrrole-2-carbonitrile] | 222 to 224 °C

Other lines, results leading:

Row | melting point | SMILES
6 | 256 to 257 °C (dec.) | CN1C(=O)OC(C)(C)c2cc(-c3ccc(C#N)[nH]3)ccc21 [Example 12, 5-(1,4,4-trimethyl-2-oxo-1,4-dihydro-2H-3,1-benzoxazin-6-yl)-1H-pyrrole-2-carbonitril]
7 | 207 to 209 °C | CC1(C)OC(=O)Nc2ccc(-c3ccc(C#N)n3CC(=O)O)cc21 [Example 9, [2-Cyano-5-(4,4-dimethyl-2-oxo-1,4-dihydro-2H-3,1-benzoxazin-6-yl)-1H-pyrrol-1yl]acetic acid]
8 | 160 to 162 °C | CCOc1cc(CCNC(=O)Cn2c(C#N)ccc2-c2ccc3c(c2)C(C)(C)OC(=O)N3)ccc1OC [Example 10, 2-[2-cyano-5-(4,4-dimethyl-2-oxo-1,4-dihydro-2H-3,1-benzoxazin-6-yl)-1H-pyrrol-1-yl]-N-[2-(3-ethoxy-4-methoxyphenyl)ethyl]acetamide]
9 | 128 to 131 °C | CCCCCn1c(C#N)ccc1-c1ccc2c(c1)C(C)(C)OC(=O)N2 [Example 11, 5-(4,4-Dimethyl-2-oxo-1,4-dihydro-2H-3,1-benzoxazine-6-yl)-1-pentyl-1H-pyrrole-2-carbonitrile]
